{"source": "patent US20240192235A1", "about": "“CERAMIDE AND SPINGOMYELIN IN NEUROLOGICAL DISORDERS” (Duke University, priority 2021, published 2024)", "key": {"[1]": {"conditions": "cited from earlier work"}, "WT and APP/PS1 mice [2]": {"test_system": "WT and APP/PS1 mice", "experiment": "Barnes Maze task", "type": "in vivo", "conditions": "1 mg/kg/day for eight weeks, probe trial", "text": "(§1) APPswe/PS1dE9 (referred to as APP/PS1) and C57BI/6J (referred to as WT) mice were purchased from The Jackson Laboratory. The APP/PS1 is a double transgenic mouse expressing a chimeric mouse/human amyloid precursor protein (Mo/HuAPP695swe) and a mutant human presenilin 1 (PS1-dE9), both directed to CNS neurons. 50% of animals used in all experiments were male.\n(§2) APP/PS1 mice and their WT littermates were used to examine fingolimod effects in vivo. Fingolimod treatment was provided in drinking water in a dark container and changed every 48 h to provide 1 mg/kg/day.\nThe behavioral apparatus consisted of a white flat, circular disk with 20 holes around its perimeter. One hole held the entrance to a darkened escape box not visible from the surface of the board, allowing the subject to exit the maze. The escape chamber position remained fixed during all trials. Mice learn the location of the escape hole using spatial reference points that were fixed in relation to the maze (extra-maze cues). The task consisted of one habituation trial on day 1 where the escape hole was presented to the animal, the animal remained in the escape box for 2 min. […] All sessions were recorded using Debut video software and assessed through ANY-maze software. For each trial, several parameters were recorded to assess performance. […] For the probe trial, time spent in the target quadrant and target hole were analyzed. […]"}, "[3]": {"experiment": "Fingolimod plasma concentration after oral administration to WT mice (UHPLC, MS-MS)", "type": "in vivo", "conditions": "both sexes, C57BL/6J, mouse, oral 1 mg/kg/day, read-out: Fingolimod levels in plasma", "procedure": "To determine if fingolimod (e.g., Gilenya®, Novartis) oral administration achieves appropriate plasma concentration, 8 WT mice at 7 months old (50% females) were treated with fingolimod at 1 mg/kg/day for 4 wks. Plasma samples were collected at two time points (2nd and 4th weeks) after treatment and analyzed by UHPLC and MS-MS. Fingolimod levels in plasma were in ng/mL: 2nd week=8.03±0.24 and 4th week=10.02±0.4."}, "WT and APP/PS1 mice [4]": {"test_system": "WT and APP/PS1 mice", "experiment": "Novel object recognition (NOR) test", "type": "in vivo", "conditions": "1 mg/kg/day for eight weeks", "text": "as §1, §2\nMice were habituated to experimental apparatus consisting of a gray rectangular open field (60 cm×50 cm×26 cm) for 5 min in the absence of any objects for 3 days. On the third day, after the habituation trial, mice were placed in the experimental apparatus in the presence of two identical objects and allowed to explore them for 5 min. […] All sessions were recorded using Noldus Media Recorder software. Exploration of the objects was defined as the mice facing and sniffing the objects within 2 cm distance and/or touching them, assessed with ANY-maze software. The ability of the mouse to recognize the novel object (discrimination index) was determined by dividing the mean time exploring the novel object by the mean of the total time exploring the novel and familiar objects during the test session. […]"}, "SP1 R1": {"biological_target": "SP1 R1 (Homo sapiens, UniProt P21453)", "sequence (P21453 whole entry)": "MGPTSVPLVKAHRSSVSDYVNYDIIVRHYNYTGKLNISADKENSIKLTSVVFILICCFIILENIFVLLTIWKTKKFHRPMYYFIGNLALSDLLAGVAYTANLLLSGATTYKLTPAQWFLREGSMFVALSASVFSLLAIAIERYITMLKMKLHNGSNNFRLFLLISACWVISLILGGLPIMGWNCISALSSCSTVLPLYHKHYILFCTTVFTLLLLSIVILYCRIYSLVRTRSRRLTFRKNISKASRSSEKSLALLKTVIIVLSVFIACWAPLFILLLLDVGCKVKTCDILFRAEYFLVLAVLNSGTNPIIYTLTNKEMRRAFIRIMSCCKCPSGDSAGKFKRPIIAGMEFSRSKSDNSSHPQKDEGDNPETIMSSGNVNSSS", "conditions": "cited from earlier work"}, "[5]": {"conditions": "fingolimod-treated APP/PS1 mice"}}}
{"compound": "CC(C)Oc1ccc(-c2nc(-c3cccc4c3CC[C@@H]4NCCO)no2)cc1C#N", "note": "[Ozanimod]", "values": [{"measurement": "cognitive processing speed as assessed by the Symbol Digit Modalities Test", "setting": "[1]; compared to IFNβ1a treatment", "value": "improved"}, {"measurement": "loss of thalamic volume", "setting": "[1]; compared to IFNβ1a treatment", "value": "slower"}]}
{"compound": "CCCCCCCCc1ccc(CCC(N)(CO)CO)cc1", "note": "[fingolimod]", "values": [{"measurement": "percentage of time spent in the target quadrant", "setting": "WT and APP/PS1 mice [2]; [5]", "value": "54.81±9.15", "unit": "%"}, {"measurement": "percentage of time spent in the target quadrant", "setting": "WT and APP/PS1 mice [2]; fingolimod-treated WT mice", "value": "63.46±11.51", "unit": "%"}, {"measurement": "concentration at 2 weeks", "setting": "[3]; 2nd week", "value": "8.03 ± 0.24", "unit": "ng/mL"}, {"measurement": "concentration at 4 weeks", "setting": "[3]; 4th week", "value": "10 ± 0.4", "unit": "ng/mL"}, {"measurement": "NOR discrimination index (NOR-DI)", "setting": "WT and APP/PS1 mice [4]; [5]", "value": "0.40±0.13"}, {"measurement": "NOR discrimination index (NOR-DI)", "setting": "WT and APP/PS1 mice [4]; fingolimod-treated WT mice", "value": "0.47±0.08"}]}
{"compound": "CCc1cc(/C(C)=N/OCc2ccc(C3CCCCC3)c(C(F)(F)F)c2)ccc1CN1CC(C(=O)O)C1", "note": "[Siponimod]", "values": [{"measurement": "Symbol Digit Modalities Test (SDMT) oral score", "setting": "[1]; compared with placebo, study months 12 and 24", "value": "benefit in favor of Siponimod"}, {"measurement": "Brief Visuospatial Memory Test-Revised", "setting": "[1]; compared with placebo", "value": "no statistically significant differences between groups"}, {"measurement": "PASAT score", "setting": "[1]; compared with placebo", "value": "no statistically significant differences between groups"}, {"measurement": "low contrast visual acuity test", "setting": "[1]; compared with placebo", "value": "small benefit in favor of Siponimod"}]}
{"compound": "FC(F)(F)c1cccc(-c2noc(-c3cc(-c4ccccc4)c(C(F)(F)F)s3)n2)c1", "note": "[SEW2871]", "values": [{"measurement": "Aβ mediated behavior abnormalities", "setting": "SP1 R1", "value": "improve"}, {"measurement": "tau phosphorylation", "setting": "SP1 R1", "value": "decrease"}]}
